{"source": "ChEMBL document CHEMBL3885861", "about": "“Open TG-GATES”", "organism": "Rattus norvegicus", "assay": "Open TG-GATES - Regimen: Daily Repeat", "type": "toxicity, organism-based, Sprague-Dawley", "set-up": "regimen Daily Repeat, gender Male, age 6 weeks", "conditions": "in vivo, po, 100 mg/kg, route gavage, dose level Middle; for APTT / Bas / Eos / Fbg / Hb / Ht / Lym / MCH / MCHC / MCV / Mono / Neu / PT / Plat / RBC / Ret / WBC: tissue Blood", "key": {"[1]": {"conditions": "72 h, tissue Kidney, time 3 day"}, "[2]": {"conditions": "72 h, tissue Plasma, time 3 day"}}}
{"smiles": "Clc1ccccc1CN1CCc2sccc2C1", "note": "[TICLOPIDINE]", "values": [{"measurement": "TERMINAL_BW", "setting": "72 h, time 3 day", "result": 224.9, "unit": "g"}, {"measurement": "APTT", "setting": "72 h, time 3 day", "result": 21.3, "unit": "s"}, {"measurement": "Bas", "setting": "72 h, time 3 day", "result": 1, "unit": "%"}, {"measurement": "Eos", "setting": "72 h, time 3 day", "result": 1, "unit": "%"}, {"measurement": "Fbg", "setting": "72 h, time 3 day", "result": 224, "unit": "mg/dL"}, {"measurement": "Hb", "setting": "72 h, time 3 day", "result": 13.4, "unit": "g/dL"}, {"measurement": "Ht", "setting": "72 h, time 3 day", "result": 37.8, "unit": "%"}, {"measurement": "Lym", "setting": "72 h, time 3 day", "result": 80.6, "unit": "%"}, {"measurement": "MCH", "setting": "72 h, time 3 day", "result": 21.5, "unit": "pg"}, {"measurement": "MCHC", "setting": "72 h, time 3 day", "result": 35.5, "unit": "%"}, {"measurement": "MCV", "setting": "72 h, time 3 day", "result": 60.4, "unit": "fL"}, {"measurement": "Mono", "setting": "72 h, time 3 day", "result": 2.6, "unit": "%"}, {"measurement": "Neu", "setting": "72 h, time 3 day", "result": 14.6, "unit": "%"}, {"measurement": "PT", "setting": "72 h, time 3 day", "result": 11.3, "unit": "s"}, {"measurement": "Plat", "setting": "72 h, time 3 day", "result": 125.6, "unit": "x10_4/uL"}, {"measurement": "RBC", "setting": "72 h, time 3 day", "result": 626.4, "unit": "x10_4/ul"}, {"measurement": "Ret", "setting": "72 h, time 3 day", "result": 5.6, "unit": "%"}, {"measurement": "WBC", "setting": "72 h, time 3 day", "result": 100.7, "unit": "x10_2/uL"}, {"measurement": "KIDNEY_L", "setting": "[1]", "result": 1, "unit": "g"}, {"measurement": "KIDNEY_R", "setting": "[1]", "result": 1, "unit": "g"}, {"measurement": "KIDNEY_TOTAL", "setting": "[1]", "result": 1.9, "unit": "g"}, {"measurement": "LIVER", "setting": "72 h, tissue Liver, time 3 day", "result": 11.8, "unit": "g"}, {"measurement": "ALP", "setting": "[2]", "result": 968, "unit": "IU/L"}, {"measurement": "ALT", "setting": "[2]", "result": 38.2, "unit": "IU/L"}, {"measurement": "AST", "setting": "[2]", "result": 65.8, "unit": "IU/L"}, {"measurement": "BUN", "setting": "[2]", "result": 15.4, "unit": "mg/dL"}, {"measurement": "CRE", "setting": "[2]", "result": 0.4, "unit": "mg/dL"}, {"measurement": "DBIL", "setting": "[2]", "result": 0.07, "unit": "mg/dL"}, {"measurement": "GLC", "setting": "[2]", "result": 195.6, "unit": "mg/dL"}, {"measurement": "IP", "setting": "[2]", "result": 7.3, "unit": "mg/dL"}, {"measurement": "K", "setting": "[2]", "result": 4, "unit": "meq/L"}, {"measurement": "LDH", "setting": "[2]", "result": 152.8, "unit": "IU/L"}, {"measurement": "Na", "setting": "[2]", "result": 142.2, "unit": "meq/L"}, {"measurement": "PL", "setting": "[2]", "result": 162.6, "unit": "mg/dL"}, {"measurement": "RALB", "setting": "[2]", "result": 3.3, "unit": "g/dL"}, {"measurement": "TBIL", "setting": "[2]", "result": 0.1, "unit": "mg/dL"}, {"measurement": "TC", "setting": "[2]", "result": 89.8, "unit": "mg/dL"}, {"measurement": "TG", "setting": "[2]", "result": 69.8, "unit": "mg/dL"}, {"measurement": "TP", "setting": "[2]", "result": 5.5, "unit": "g/dL"}, {"measurement": "gamma-GTP", "setting": "[2]", "result": 0.8, "unit": "IU/L"}, {"measurement": "TERMINAL_BW", "setting": "[…], time 7 day", "result": 258, "unit": "g"}, {"measurement": "TERMINAL_BW", "setting": "[…], time 14 day", "result": 306.1, "unit": "g"}, {"measurement": "TERMINAL_BW", "setting": "[…], time 28 day", "result": 394.5, "unit": "g"}, {"measurement": "APTT", "setting": "[…], time 7 day", "result": 22.3, "unit": "s"}, {"measurement": "Bas", "setting": "[…], time 7 day", "result": 0.6, "unit": "%"}, {"measurement": "Eos", "setting": "[…], time 7 day", "result": 0.8, "unit": "%"}, {"measurement": "Fbg", "setting": "[…], time 7 day", "result": 227.4, "unit": "mg/dL"}, {"measurement": "Hb", "setting": "[…], time 7 day", "result": 13.6, "unit": "g/dL"}, {"measurement": "Ht", "setting": "[…], time 7 day", "result": 38.2, "unit": "%"}, {"measurement": "MCH", "setting": "[…], time 7 day", "result": 21.4, "unit": "pg"}, {"measurement": "MCHC", "setting": "[…], time 7 day", "result": 35.5, "unit": "%"}, {"measurement": "MCV", "setting": "[…], time 7 day", "result": 60.4, "unit": "fL"}, {"measurement": "Mono", "setting": "[…], time 7 day", "result": 2.6, "unit": "%"}, {"measurement": "Neu", "setting": "[…], time 7 day", "result": 13, "unit": "%"}, {"measurement": "PT", "setting": "[…], time 7 day", "result": 11.6, "unit": "s"}, {"measurement": "Plat", "setting": "[…], time 7 day", "result": 123.7, "unit": "x10_4/uL"}, {"measurement": "RBC", "setting": "[…], time 7 day", "result": 633.2, "unit": "x10_4/ul"}, {"measurement": "Ret", "setting": "[…], time 7 day", "result": 5.4, "unit": "%"}, {"measurement": "WBC", "setting": "[…], time 7 day", "result": 117.5, "unit": "x10_2/uL"}, {"measurement": "APTT", "setting": "[…], time 14 day", "result": 19.9, "unit": "s"}, {"measurement": "Bas", "setting": "[…], time 14 day", "result": 0.8, "unit": "%"}, {"measurement": "Eos", "setting": "[…], time 14 day", "result": 0.8, "unit": "%"}, {"measurement": "Fbg", "setting": "[…], time 14 day", "result": 220.4, "unit": "mg/dL"}, {"measurement": "Hb", "setting": "[…], time 14 day", "result": 14.5, "unit": "g/dL"}, {"measurement": "Ht", "setting": "[…], time 14 day", "result": 40.6, "unit": "%"}, {"measurement": "Lym", "setting": "[…], time 14 day", "result": 80.6, "unit": "%"}, {"measurement": "MCH", "setting": "[…], time 14 day", "result": 21.3, "unit": "pg"}, {"measurement": "MCHC", "setting": "[…], time 14 day", "result": 35.7, "unit": "%"}, {"measurement": "MCV", "setting": "[…], time 14 day", "result": 59.6, "unit": "fL"}, {"measurement": "Mono", "setting": "[…], time 14 day", "result": 2.2, "unit": "%"}, {"measurement": "Neu", "setting": "[…], time 14 day", "result": 15.4, "unit": "%"}, {"measurement": "PT", "setting": "[…], time 14 day", "result": 11.8, "unit": "s"}, {"measurement": "Plat", "setting": "[…], time 14 day", "result": 114.3, "unit": "x10_4/uL"}, {"measurement": "RBC", "setting": "[…], time 14 day", "result": 681, "unit": "x10_4/ul"}, {"measurement": "Ret", "setting": "[…], time 14 day", "result": 4.3, "unit": "%"}, {"measurement": "WBC", "setting": "[…], time 14 day", "result": 108.6, "unit": "x10_2/uL"}, {"measurement": "APTT", "setting": "[…], time 28 day", "result": 18.7, "unit": "s"}, {"measurement": "Bas", "setting": "[…], time 28 day", "result": 1, "unit": "%"}, {"measurement": "Eos", "setting": "[…], time 28 day", "result": 0.8, "unit": "%"}]}
